# In paper PMC11117691, “Flipping the GPCR Switch: Structure-Based Development of Selective Cannabinoid Receptor 2 Inverse Agonists” (ACS Central Science, 2024):
# Legend:
# hCB2R [1] = target: T1, hCB2R (Homo sapiens, UniProt P34972); assay type: cell-based; design: expressed in transfected cells; host or cells: HEK293TR cells, tetracycline-induced, live cells; details: HEK293TR-CB2R-nLuc cells, representative of N = 3
# Experimental: HEPES. Following the wash, assay buffer containing 10 μM furimazine, 90 μL/well was added
# to the wells. The plate was then incubated at 37 °C for 15 minutes to allow the nanoLuc substrate
# furimazine to enter the cells. Three BRET cycles of 1-minute intervals were performed to assess
# basal BRET levels, following which 10 μL of each compound, diluted in assay buffer was added
# to the assay plate, which was read at 1-minute intervals for 30 minutes.
# Buffer containing 10% DMSO (1% final) served as the vehicle control and
# The assay buffer used to profile compounds in the CB 2R Gi-CASE system consisted of HBSS
# containing 0.02% pluronic F127, 0.5% BSA and 5 mM HEPES. The reference compounds HU -
# polypropylene plate. 0.5 µL of the reference and test compound serial dilutions was then added to
# a white 384 well OptiplateTM (PerkinElmer) containing 39.5 μL of assay buff er. Finally, the CB 2R
# membranes containing the G i-CASE biosensor were thawed and added into assay buffer containing
# 50 µM furimazine. Membranes (10 μL) were added to the assay plate at a final concentration of 5
# µg/well. The total assay volume was 50 µL.
# hCB2R [2] = target: T1, hCB2R; test: BRET Gi-CASE G protein recruitment membrane assay; assay type: biochemical; design: expressed in transfected cells; host or cells: HEK293-TR cells, tetracycline-induced; membrane preparations; details: for EC50: hCB2R-HEK293 T-REx membranes, mean N = 3–4, read-out: pEC50 (Gi-CASE G protein recruitment) (converted)
# hCB2R [3] = target: T1, hCB2R; test: TR-FRET saturation binding assay at CB2R; design: expressed in transfected cells; host or cells: HEK293-TR cells, tetracycline-induced; membrane preparations; details: room temperature; for Kd: TR-FRET, HEK293 membranes of SNAP-Lumi4-Tb labeled hCB2R
# hCB2R [4] = target: T1, hCB2R; test: cAMP HTRF assay in hCB2R-CHO cells; assay type: cell-based; design: expressed in transfected cells; details: for EC50: hCB2R-CHO cells, forskolin stimulated, mean N = 3
# Text: One of the canonical signaling pathways of CB2R involves association with Gαi/o proteins, which elicit reversible inhibition of adenylyl cyclase resulting in a decrease of cellular cAMP levels and suppression of protein kinase A activity.[67] Consequently, we have investigated the change in cAMP levels upon probe addition using homogeneous time-resolved fluorescence (HTRF) cAMP assay (Table 3).
# Homogeneous Time-Resolved Fluorescence (HTRF) cAMP assay
# The homogeneous time-resolved fluorescence (HTRF) cAMP assay was conducted according to the manufacturer’s protocol for the cAMP-Gs Dynamic kit (Cisbio). Briefly, the CHO cell line stably overexpressing CB2R was maintained in Ham’s F12 supplemented with 10% FBS, penicillin (100 U/mL, Gibco-ThermoFisher), streptomycin (100 μg/mL, Gibco-ThermoFisher) and G418 (400 μg/mL, ThermoFisher). For CB2R compounds test, the cells were harvested with Cell Dissociation Buffer, resuspended in F-12 K at 0.4×10^6 cells/mL, and dispensed into 384-well low volume plates at 2000 cells/5 μL per well. The cells were stimulated with compounds diluted in Stimulation Buffer (2.5 μL/well) for 15 min at room temperature, followed by the addition of forsklin (2.5 μL 25 μM). After 15 mins incubation, reactions were stopped by 5 μL/well cAMP-d2 conjugate working solution followed by 5 μL/well of anti-cAMP cryptate working solution. After incubation for 1 h at room temperature, the plates were read in a PerkinElmer Envision reader for Time-Resolved Förster Resonance Energy Transfer (TR-FRET) at 620 nm and 665 nm.
# β–arrestin recruitment assay
# SNAP-tagged human CB2R HEK293-TR cells were maintained in a humidified environment at 37 °C and 5% CO2 in Dulbecco’s modified Eagle’s medium (DMEM) with 10% fetal bovine serum (FBS) containing blasticidin (5 µg/mL; Invitrogen) and (Zeocin; 20 µg/mL; Invitrogen). For receptor-inducible expression, cells were seeded into t175 cm2 flasks, grown to 70% confluence and DMEM containing 1 µg/ml tetracycline added.
# HEK293TR-CB2R-nLuc cells expressing a fluorescently labelled β-arrestin protein were maintained in a humidified environment at 37 °C and 5% CO2 in Dulbecco’s modified Eagle’s medium (DMEM) with 10% fetal bovine serum (FBS) containing blasticidin (5 µg/mL; Invitrogen), Zeocin (20 µg/mL; Invitrogen) and G418 (0.2 mg/mL; Invitrogen) and used to assess compound stimulated β-arrestin recruitment to the human CB2R. Cultured cells were harvested upon reaching 70% confluency and plated at a seeding density of 50,000 cells per well. The cells were grown for 48 h until they reached confluency and then stimulated with 1 μg/mL tetracycline for a further 48 h to induce CB2R expression. Cell culture media was then aspirated from the wells and the cells were washed with assay buffer, 100 μL/well HBSS containing 0.5% BSA and 5 mM
# hCB2R [5] = target: T1, hCB2R; test: TR-FRET kinetic binding assay at CB2R; design: expressed in transfected cells; host or cells: HEK293-TR cells, tetracycline-induced; membrane preparations; details: for koff / kon / τ (receptor residence time) / Kd: hCB2R-HEK293 membranes, mean N = 3; for Kd: kinetic Kd
# rat CB2R = test: Live cell fluorescent Ca2+ imaging (Fluo-4AM) in AtT-20(rCB2R) cells; assay type: cell-based; details: 20 μM, live AtT-20(rCB2R) cells; HU-308 added after (S)-3/(R)-3
# Experimental: Live AtT-20 cells overexpressing rat CB2R [AtT-20(rCB2R)] were treated with Fluo-4AM Ca^2+ dye and imaged by confocal microscopy (Figure 7). […] Ionomycin was added at the end of the experiment to saturate Ca^2+ levels.
# Culture media (D10): Contains high glucose DMEM (450 mL, Gibco, #11965-092), FBS (50 mL, HyClone’s USDA tested, #SH30910), antibiotic Penicillin-strep (2.5 mL, Gibco, #15070).
# Sterile filtered and aliquoted.
# Culture media (D10) with hygromycin-B selection: Contains high glucose DMEM (450 mL, Gibco, #11965-092), FBS (50 mL, HyClone’s USDA tested, #SH30910), antibiotic Penicillin-strep (2.5 mL, Gibco, #15070). Sterile filtered and aliquoted. Selection maintained with Hygromycin-B (200 µg/mL, Thermo Fisher Scientific, #10687010).
# Imaging buffer: Contains (in mM): 115 NaCl, 1.2 CaCl2, 1.2 MgCl2, 1.2 K2HPO4, 20 HEPES, 20 D-glucose. Adjusted to pH 7.4 with NaOH. Sterile filtered and aliquoted.
# AtT-20 wild type (WT) and overexpressing rat CB2R cells (AtT-20(rCB2R)) were cultured in D10 culture media. […]
# Fluorescence images were acquired with an Olympus Fluoview 1200 laser scanning confocal microscope using a 63× objective. […] For a direct comparison of the AtT-20(rCB2R) and wild type cells, one well of each genotype was labelled in parallel, and the identical settings on the confocal microscope were used between wells to accurately compare the dye fluorescence intensities.
# [6] = tested on: CB2R-mediated phosphorylation of endogenous ERK1/2; test: AlphaScreen SureFire phospho-ERK assay in CB2R inducible HCC1954 cells; assay type: cell-based; details: 1 μM, 30 min, versus vehicle
# Experimental: Activation of CB2R is associated with downstream stimulation of mitogen-activated protein kinases, such as ERK1/2, mediated via either Gβγ or β-arrestins.[70],[71] We have tested representative high-affinity fluorescent probe (R)-2 for CB2R-mediated phosphorylation of endogenous ERK1/2 in a CB2R inducible breast cancer HCC1954 cell line using the AlphaScreen SureFire phospho-ERK assay (Figure 6). […] (1 μM), or (R)-2 (1 μM) for 30 min. Following cell lysis, lysates were incubated with a mixture containing donor and acceptor beads for 2 h at room temperature and the luminescence emission signal was measured.
# For ERK phosphorylation assay an inducible HCC1954 breast cancer cell line expressing CB2R […]
# ERK1/2 phosphorylation was measured using AlphaScreen® SureFire® p‐ERK 1/2 assay kit according to manufacturer instructions (PerkinElmer) . Briefly, HCC1954 cells were seeded at a density of 100 000 cells/well in poly -D-lysine coated 96-well plates and incubated in absence or presence of 1 µg/ mL doxycycline for 24 h. On the next day prior to assay, cells were serum-starved for 2 h at 37°C. […] The plate was incubated for 2 h and ERK1/2 phosphorylation was measured on CLARIOstar® Plus Multimode Plate Reader (BMG Labtech, Germany), using a ratio of 620/570 nm. […]
# Statistical significance was determined by one-way ANOVA followed by Tukey's post hoc test.
# [7] = normalized to agonist CP-55,940 response (100%) and basal level (0%)
# T1 sequence (P34972 whole entry): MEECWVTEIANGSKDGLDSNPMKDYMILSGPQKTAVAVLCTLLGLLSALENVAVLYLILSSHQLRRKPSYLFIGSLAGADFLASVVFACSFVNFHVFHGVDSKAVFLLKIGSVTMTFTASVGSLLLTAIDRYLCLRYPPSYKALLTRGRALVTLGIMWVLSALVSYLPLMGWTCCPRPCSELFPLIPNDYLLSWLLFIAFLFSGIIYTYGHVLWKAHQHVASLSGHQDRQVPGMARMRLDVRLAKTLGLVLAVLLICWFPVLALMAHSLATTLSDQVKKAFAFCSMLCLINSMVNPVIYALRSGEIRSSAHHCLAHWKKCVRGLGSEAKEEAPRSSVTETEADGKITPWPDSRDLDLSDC
Molecule,β-arrestin recruitment (BRET signal) (hCB2R [1]),EC50 (hCB2R [2]) [nM],Kd (hCB2R [3]) [nM],EC50 (hCB2R [4]) [nM],koff (hCB2R [5]; 37 °C),kon (hCB2R [5]; 37 °C),τ (receptor residence time) (hCB2R [5]; 37 °C) [min],Kd (hCB2R [5]; 37 °C) [nM],also measured
C#CCCC(=O)NCC1=CC(c2c(OC)cc(C(C)(C)C(CCCCCN=[N+]=[N-])c3ccccc3)cc2OC)C2CC1C2(C)C [(S)-3],Baseline BRET signal was retained,30.9,2.1,40.7,4.96 10^–2 min^–1,44.3 10^6 M^–1 min^–1,20.2,1.12,"Emax (cAMP) (hCB2R [4]; [7]): –49%; ΔG (Experimental) (hCB2R [5]; ΔG exp = RT ln(Kd), T = 310 K, from experimental Kd values): –12.7 kcal mol-1"
COc1cc(C(C)(C)C(CCCCCN=[N+]=[N-])c2ccccc2)cc(OC)c1C1C=C(CN)C2CC1C2(C)C [(R)-1],Baseline BRET signal was retained,158,39.1,112,13.9 10^–2 min^–1,12.0 10^6 M^–1 min^–1,7.19,11.6,fold greater binding affinity for CB2R in comparison to (S)-1 (hCB2R [3]; ratio of Kd values): 12 fold; Emax (cAMP) (hCB2R [4]; [7]): –44%
C#CCCC(=O)NCC1=CC(c2c(OC)cc(C(C)(C)C(CCCCCN=[N+]=[N-])c3ccccc3)cc2OC)C2CC1C2(C)C [(S)-3/(R)-3],,,,,,,,,intracellular Ca2+ (Fluo-4AM fluorescence) (rat CB2R): did not elicit increase in Fluo-4AM fluorescence
CCCC(C)(C)c1ccc2c(c1)OC(C)(C)[C@@H]1CC=C(C)C[C@@H]21 [JWH133],,,,,,,,,ERK1/2 phosphorylation level ([6]; CB2R expression induced with DOX (1 μg/mL)): effectively stimulated ERK1/2 phosphorylation; ERK1/2 phosphorylation level ([6]; absence of CB2R expression inducer (DOX)): remained the same
"CCCCCCC(C)(C)c1cc(OC)c([C@@H]2C=C(CO)[C@@H]3C[C@H]2C3(C)C)c(OC)c1 [HU-308, reference compound]",,,,,,,,,intracellular Ca2+ (Fluo-4AM fluorescence) (rat CB2R): triggered a robust fluorescence spike
COc1cc(C(C)(C)C(CCCCCN=[N+]=[N-])c2ccccc2)cc(OC)c1C1C=C(CN)C2CC1C2(C)C [(S)-1],Baseline BRET signal was retained,191,476,2690,115 10^–2 min^–1,157000 M⁻¹ s⁻¹,0.87,122,fold increased potency of G protein recruitment over adenylyl cyclase inhibition (hCB2R [2]; Gi-CASE pEC50 versus cAMP pEC50): 14 fold; Emax (hCB2R [4]; [7]): -44%
RO7568997 [reference compound],,,,,,,,,"dissociation rate of fluorescent tracer (hCB2R [5]; tracer of competition-association assay, value fixed in fitting, 37 °C): 1.13 min⁻¹"
